7 molecules from publication PMC9589254, “Disrupting Cu trafficking as a potential therapy for cancer” (Frontiers in Molecular Biosciences, 2022) can be followed below.

One data set concerns HepG2 liver cancer cells. Kind of data set: Cell toxicity (MTT assay), HepG2. Particulars: copper ions alone, absence of peptides, read-out: LC50 (the source's name). The format is cell-based. How it is done: (§1) HEK293 and MCF7 cells were cultured in Dulbecco’s modified Eagle’s medium (DMEM) high glucose medium, with fetal bovine serum (10%), L-glutamine (1%), and PSNS antibiotic (1%). The HepG2 cell line was cultured in Eagle’s minimum essential medium (EMEM), with fetal bovine serum (10%), L-glutamine (1%) and PSNS antibiotic (1%). The THLE-3 cell line was cultured in BGEM medium according to manufacturer’s instructions. All cell line types were cultured at 37°C with 5% CO2. The culture media was changed every 2 days. At 80% confluence, the cells were harvested using 0.25% trypsin and sub-cultured into 75 cm^2 flasks, 24-well plates, or 96-well plates, according to the experiment. The cells were then treated with a range of peptide concentrations suspended in medium without serum for 24 h. After the 24 h treatment, the various toxicity end points were evaluated in the control and peptide-exposed cells.
(§2) Peptides were introduced at various concentrations (three triplicates per concentration) ranging from 0 to 1 mM and incubated with the different cell lines (HEK293/MCF7/HepG2/THLE-3) for 24 h at 37°C. […] Lysates were transferred to 96-well plates and absorption values were collected using a Synergy plate reader at 570 nm wavelength. […] The absorption of the control (without peptide) was determined at 100%; all peptide concentrations were compared to the control sample. […]

Data set [1] concerns HEK293 human kidney cells. Kind of data set: Cell toxicity (MTT assay), HEK293. The class given is cell-based. To be noted: copper ions alone, absence of peptides, read-out: LC50 (the source's name). The method, then: as §1, §2
The subject of a further data set is MCF7 breast cancer cells. Kind of data set: Cell toxicity (MTT assay), MCF7. The class given is cell-based. Particulars: copper ions alone, absence of peptides, read-out: LC50 (the source's name). The method, then: as §1, §2
For orientation: Tetrazolium assays rely on reduction of a dye to a coloured formazan, in cell work by metabolically active cells.

The next data set deals with T1, ATP7B MBD3-4 (Homo sapiens, UniProt P35670).
T1 construct: […]; made in house; host or cells: E. coli Origami 2
T1 sequence (P35670 234-439): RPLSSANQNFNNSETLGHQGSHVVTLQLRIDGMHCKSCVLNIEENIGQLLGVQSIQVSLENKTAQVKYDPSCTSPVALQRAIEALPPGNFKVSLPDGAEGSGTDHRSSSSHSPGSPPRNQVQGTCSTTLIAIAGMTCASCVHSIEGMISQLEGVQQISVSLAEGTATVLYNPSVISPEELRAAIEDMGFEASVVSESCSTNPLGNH
Kind of data set: Microscale thermophoresis (MST) binding to MBD3-4. Particulars: for Kd: in the presence of Cu(I) (40 µM), protein 50 nM. How it is done:
To better understand the EPR and CD experiments, MST binding experiments were performed. MST is a physical phenomenon whereby biomolecules migrate along a temperature gradient according to their size, hydrodynamic radius, charge, and hydration shell. The target biomolecule is fluorescently labeled and monitored over the course of the experiment. An infra-red laser is used to create a temperature gradient for a given time. Since binding interactions can alter the properties listed above, a binding curve can be created with a ligand titration series. Fixed amounts of labelled MBD3-4 or Atox1 were incubated with increasing concentrations of SMD or KER peptides, in the presence or absence of Cu(I) (Figure 3). […] The measured KD values of the SMD peptide were in the tens of µM range for both Atox1 (39 ± 3 μM) and MBD3-4 (45 ± 4 μM), whereas KER peptide preferentially interacted with Atox1 (20 ± 2 μM). The KD for the interaction with MBD3-4 was slightly higher (36 ± 3 μM).
The labelling was performed with reactive dyes using N-hydroxysuccinimide (NHS)–ester chemistry. The protein concentration was adjusted to 20 μM using HEPES buffer. Briefly, the solid fluorescent dye was dissolved in DMSO at a concentration of about 1.3 mM and mixed thoroughly. Before mixing the protein and dye, the concentration of the dye was adjusted to twice that of the protein using HEPES buffer. Then, the protein and fluorescent dye solutions were mixed at a 1:1 ratio and incubated for 30 min at room temperature in the dark. […] Purity was monitored by measuring the ratio of protein to dye (spectroscopically, for example, by measuring absorption at 280 nm for protein and 650 nm for the dye; molar absorbance: 250,000 M^−1 cm^−1) after the clean-up procedure.
(§3) MBD3-4 and Atox1 were labeled on lysine residues with red fluorescent NT-647-NHS using the NanoTemper labeling kit. […] Normalized fluorescence was detected at a ratio of [Fnorm = Fhot/Finitial]. Fluorescence was measured before IR-laser heating (Finitial) and after a specific IR-laser heating (Fhot) time. […]
On the technique in general: MST reads how a fluorescent partner responds to local heating, with and without ligand.

The target of the next data set is T2, Atox1 (Homo sapiens, UniProt O00244).
T2 construct: made in house; host or cells: E. coli Origami 2 (as for ATP7B MBD3-4)
T2 sequence (O00244 1-68): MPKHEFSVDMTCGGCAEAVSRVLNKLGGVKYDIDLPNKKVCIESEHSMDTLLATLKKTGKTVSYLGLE
The data set is described as follows: Microscale thermophoresis (MST) binding to Atox1. Particulars: neither in the presence nor in the absence of Cu(I). How it is done:
To better understand the EPR and CD experiments, MST binding experiments were performed. MST is a physical phenomenon whereby biomolecules migrate along a temperature gradient according to their size, hydrodynamic radius, charge, and hydration shell. The target biomolecule is fluorescently labeled and monitored over the course of the experiment. An infra-red laser is used to create a temperature gradient for a given time. Since binding interactions can alter the properties listed above, a binding curve can be created with a ligand titration series. Fixed amounts of labelled MBD3-4 or Atox1 were incubated with increasing concentrations of SMD or KER peptides, in the presence or absence of Cu(I) (Figure 3). […]
The labelling was performed with reactive dyes using N-hydroxysuccinimide (NHS)–ester chemistry. […] Purity was monitored by measuring the ratio of protein to dye (spectroscopically, for example, by measuring absorption at 280 nm for protein and 650 nm for the dye; molar absorbance: 250,000 M^−1 cm^−1) after the clean-up procedure.
as §3

In data set [2] the target is ATP7B MBD3-4, fluorescently labelled (NT-647-NHS).
Chain of ATP7B MBD3-4, fluorescently labelled (NT-647-NHS) (P35670 whole entry): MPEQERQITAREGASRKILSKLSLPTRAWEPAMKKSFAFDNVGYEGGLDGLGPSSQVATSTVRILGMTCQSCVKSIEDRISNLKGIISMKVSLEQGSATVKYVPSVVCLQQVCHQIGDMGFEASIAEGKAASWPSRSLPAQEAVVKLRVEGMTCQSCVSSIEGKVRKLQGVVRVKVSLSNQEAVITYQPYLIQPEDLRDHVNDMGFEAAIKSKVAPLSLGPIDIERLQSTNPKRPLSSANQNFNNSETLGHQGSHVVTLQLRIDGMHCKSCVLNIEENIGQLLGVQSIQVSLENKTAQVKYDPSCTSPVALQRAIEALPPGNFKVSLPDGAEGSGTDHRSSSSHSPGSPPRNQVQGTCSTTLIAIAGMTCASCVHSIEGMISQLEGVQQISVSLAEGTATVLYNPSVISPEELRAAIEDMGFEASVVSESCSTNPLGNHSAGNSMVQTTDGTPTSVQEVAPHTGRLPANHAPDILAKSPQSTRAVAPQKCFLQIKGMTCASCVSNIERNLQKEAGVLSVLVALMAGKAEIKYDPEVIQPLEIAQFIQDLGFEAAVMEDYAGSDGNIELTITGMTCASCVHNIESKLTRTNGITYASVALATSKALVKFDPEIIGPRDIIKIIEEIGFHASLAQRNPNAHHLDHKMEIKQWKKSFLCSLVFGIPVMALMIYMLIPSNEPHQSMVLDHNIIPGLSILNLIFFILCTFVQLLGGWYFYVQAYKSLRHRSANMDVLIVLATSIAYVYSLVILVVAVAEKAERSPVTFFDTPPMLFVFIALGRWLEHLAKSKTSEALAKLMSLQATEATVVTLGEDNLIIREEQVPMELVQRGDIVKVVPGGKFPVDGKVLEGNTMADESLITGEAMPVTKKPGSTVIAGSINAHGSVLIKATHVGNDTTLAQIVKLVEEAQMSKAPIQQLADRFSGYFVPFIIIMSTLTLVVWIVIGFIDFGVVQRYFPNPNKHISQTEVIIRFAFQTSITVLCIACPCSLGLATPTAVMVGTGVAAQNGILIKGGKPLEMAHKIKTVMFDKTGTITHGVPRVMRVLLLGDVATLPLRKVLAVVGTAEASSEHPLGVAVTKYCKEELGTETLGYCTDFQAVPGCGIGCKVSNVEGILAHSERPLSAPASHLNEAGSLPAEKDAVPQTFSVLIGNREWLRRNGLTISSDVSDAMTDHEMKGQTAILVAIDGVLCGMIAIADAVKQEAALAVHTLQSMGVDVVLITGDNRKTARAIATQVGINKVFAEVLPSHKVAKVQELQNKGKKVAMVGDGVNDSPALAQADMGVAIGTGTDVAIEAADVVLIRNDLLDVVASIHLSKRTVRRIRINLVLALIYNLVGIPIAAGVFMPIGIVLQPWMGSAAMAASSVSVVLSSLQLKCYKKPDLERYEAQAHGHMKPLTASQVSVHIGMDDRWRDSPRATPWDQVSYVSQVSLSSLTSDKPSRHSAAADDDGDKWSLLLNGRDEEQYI
The target of data set [3] is T3, Atox1, fluorescently labelled (NT-647-NHS) (UniProt O00244 1-68, red fluorescent NT-647-NHS on lysine residues).
T3 construct: Atox1 copper metallochaperone; also called metallochaperone Atox1; source: E. coli Origami 2, purified as for ATP7B MBD3-4 (chitin beads, intein self-cleaved with DTT)
T3 sequence (looked up): T2 sequence (O00244 1-68)
Kind of data set: MST; with Cu(I) 40 uM; labelled protein 50 nM, peptide titrated; 25 mM Na2HPO4 pH 8, 150 mM NaCl, 0.05% Tween 20; 25 C; Monolith NT.115. Particulars: both partners purified.

Data set [4] addresses T3, Atox1, fluorescently labelled …. The data set is described as follows: cell-based or functional assay.
The target in data set [5] is ATP7B MBD3-4, fluorescently labelled (NT-647-NHS). The data set is described as follows: MST; with Cu(I) 40 uM; labelled protein 50 nM, peptide titrated; 25 mM Na2HPO4 pH 8, 150 mM NaCl, 0.05% Tween 20; 25 C; Monolith NT.115.

Peptide text beside a SMILES is read from it.

For `[Cu+]` [Cu(I)], the CC50 in the data set on HepG2 liver cancer cells was found to be 170 µM; in [1] it was 150 µM; in the data set with MCF7 breast cancer cells, 165 µM.

Consider `[Cu+2]` [Cu(II)], for which the figures for the CC50 (in the data set with HepG2 liver cancer cells; in [1]; in the data set with MCF7 breast cancer cells) were 205 µM, 196 µM and 180 µM, respectively.

For `C[C@@H](O)[C@H](NC(=O)[C@H](CCCNC(=N)N)NC(=O)[C@H](CCC(=O)O)NC(=O)[C@@H](N)CCCCN)C(=O)N[C@@H](CO)C(=O)N[C@@H](CCCNC(=N)N)C(N)=O` [KER, KERTSR] (H-KERTSR-NH2), the Kd (usually the constant that tells how readily two partners part at equilibrium) on ATP7B MBD3-4 was found to be 36 ± 3 µM.

In the case of `CC[C@H](C)[C@H](NC(=O)[C@H](CO)NC(=O)[C@H](CCSC)NC(=O)[C@H](CC(=O)O)NC(=O)[C@H](CCSC)NC(=O)[C@@H](N)CO)C(=O)N[C@@H](CCC(=O)O)C(N)=O` [SMD, SMDMSIE] (H-SMDMSIE-NH2), at ATP7B MBD3-4, the Kd came to 45 ± 4 µM.

GAGAAA [Ala]: the “Binding interaction with MBD3-4 (MST)” value at ATP7B MBD3-4 (neither in the presence nor in the absence of Cu(I)) is “No binding interaction was observed”. Moreover, the “Binding interaction with Atox1 (MST)” value at Atox1 is “No binding interaction was observed”.

B1: SMD peptide (peptide)
peptide: SMDMSIE
notes: Made on rink-amide resin, which would give a C-terminal amide; also called SMDMSIE; source: synthetic peptide (Fmoc, rink-amide resin, reverse phase HPLC; 95.1% purity)
Turning to B1, the intracellular 64Cu content of MCF7 cells 4 h after 64Cu(II) injection, with peptide against without in data set [2] and in data set [4] was 5 fold throughout. For the same molecule, the Kd in [3] stood at 39 ± 3 µM; in data set [5] it was 45 µM.

B2: KER peptide (peptide)
peptide: KERTSR
notes: Made on rink-amide resin, which would give a C-terminal amide; also called KERTSR; source: synthetic peptide (Fmoc, rink-amide resin, reverse phase HPLC; 99.4% purity)
As for B2, the intracellular 64Cu content of MCF7 cells 4 h after 64Cu(II) injection, with peptide against without in [2] and in data set [4] was 3 fold each time. For the same molecule, the Kd in [3] came out at 20 ± 2 µM; in data set [5], 36 µM.
